Data from ChEMBL document CHEMBL1201862, “PubChem BioAssay data set” (2004).
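Assay format: 96-well plates, 48-hour exposure. Abbreviation: GI50, concentration required for 50% inhibition of growth.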 Activity calls are given as the source filed them. No stated cut-off is given here; in the data, active = GI50 up to about 1.1 µM and inactive = higher.

What was measured:
Assay in all cases: NCI-60 cell line screen, 48 h
RPMI-8226 = test system: RPMI-8226
DU-145 = test system: DU-145
SK-MEL-5 = test system: SK-MEL-5
786-0 = test system: 786-0
UACC-62 = test system: UACC-62
SW-620 = test system: SW-620
NCI-H226 = test system: NCI-H226
NCI-H460 = test system: NCI-H460
COLO 205 = test system: COLO 205
NCI-H522 = test system: NCI-H522
SF-295 = test system: SF-295
OVCAR-4 = test system: OVCAR-4
SNB-75 = test system: SNB-75
HCC 2998 = test system: HCC 2998
SK-OV-3 = test system: SK-OV-3
MOLT-4 = test system: MOLT-4
HOP-62 = test system: HOP-62
NCI-H23 = test system: NCI-H23
MDA-N = test system: MDA-N
HOP-92 = test system: HOP-92

COc1cc(C(=O)Nc2c3ccccc3nc3ccccc23)cc(OC)c1OC
GI50 (RPMI-8226): > 100 µM (inactive)
GI50 (DU-145): > 100 µM (inactive)
GI50 (SK-MEL-5): > 100 µM (inactive)
GI50 (786-0): > 100 µM (inactive)
GI50 (UACC-62): > 34.7 µM (inactive)
GI50 (SW-620): > 100 µM (inactive)
GI50 (NCI-H226): > 100 µM (inactive)
GI50 (NCI-H460): > 70.8 µM (inactive)
GI50 (COLO 205): > 100 µM (inactive)
GI50 (NCI-H522): 42 µM (inactive)
GI50 (SF-295): 35.6 µM (inactive)
GI50 (OVCAR-4): > 100 µM (inactive)
GI50 (SNB-75): 0.885 µM (active)
GI50 (HCC 2998): > 100 µM (inactive)
GI50 (SK-OV-3): > 100 µM (inactive)
GI50 (MOLT-4): 23.2 µM (inactive)
GI50 (HOP-62): > 36.3 µM (inactive)
GI50 (NCI-H23): > 100 µM (inactive)
GI50 (MDA-N): 30 µM (inactive)
GI50 (HOP-92): 50.1 µM (inactive)

CN(C)c1n/c(=N/Cc2ccccc2)ss1
GI50 (RPMI-8226): 2.9 µM (inactive)
GI50 (DU-145): > 10 µM (inactive)
GI50 (SK-MEL-5): > 10 µM (inactive)
GI50 (786-0): > 6.82 µM (inactive)
GI50 (UACC-62): > 10 µM (inactive)
GI50 (SW-620): > 10 µM (inactive)
GI50 (NCI-H226): > 10 µM (inactive)
GI50 (NCI-H460): > 10 µM (inactive)
GI50 (COLO 205): > 10 µM (inactive)
GI50 (NCI-H522): 2.61 µM (inactive)
GI50 (SF-295): > 10 µM (inactive)
GI50 (OVCAR-4): > 10 µM (inactive)
GI50 (SNB-75): > 10 µM (inactive)
GI50 (HCC 2998): > 9.64 µM (inactive)
GI50 (SK-OV-3): > 10 µM (inactive)
GI50 (MOLT-4): 1.81 µM (inactive)
GI50 (HOP-62): > 10 µM (inactive)
GI50 (NCI-H23): > 10 µM (inactive)
GI50 (MDA-N): > 10 µM (inactive)
GI50 (HOP-92): > 10 µM (inactive)

COC(=O)C1Cc2ccc(O)c(O)c2CN1 (stereo not given)
GI50 (RPMI-8226): 24.2 µM (inactive)
GI50 (DU-145): 30.7 µM (inactive)
GI50 (SK-MEL-5): 15.1 µM (inactive)
GI50 (786-0): 17.5 µM (inactive)
GI50 (UACC-62): 19.7 µM (inactive)
GI50 (SW-620): 21.3 µM (inactive)
GI50 (NCI-H226): > 100 µM (inactive)
GI50 (NCI-H460): 56.9 µM (inactive)
GI50 (COLO 205): > 100 µM (inactive)
GI50 (NCI-H522): > 100 µM (inactive)
GI50 (SF-295): 7.41 µM (inactive)
GI50 (OVCAR-4): 19.3 µM (inactive)
GI50 (SNB-75): 19.5 µM (inactive)
GI50 (HCC 2998): > 100 µM (inactive)
GI50 (SK-OV-3): > 100 µM (inactive)
GI50 (MOLT-4): 25.1 µM (inactive)
GI50 (HOP-62): > 100 µM (inactive)
GI50 (NCI-H23): 16.6 µM (inactive)
GI50 (MDA-N): 16.4 µM (inactive)
GI50 (HOP-92): 26.4 µM (inactive)
